Results published in ChEMBL document CHEMBL1649327, “In vitro antimicrobial activity and mutant prevention concentration of colistin against Acinetobacter baumannii” (Antimicrob Agents Chemother, 2010).
Converted amounts (≈) assume the structure as drawn.

Experiments:
Acinetobacter baumannii [1] = assay: Antimicrobial activity against Acinetobacter baumannii assessed as resistant isolate by broth dilution method; assay type: functional
Acinetobacter baumannii [2] = assay: Antimicrobial activity against Acinetobacter baumannii assessed as susceptible isolate by broth dilution method; assay type: functional
Acinetobacter baumannii [3] = assay: Antimicrobial activity against Acinetobacter baumannii by broth dilution method; assay type: functional
Acinetobacter baumannii [4] = assay: Antimicrobial activity against Acinetobacter baumannii assessed as resistant isolate by broth dilution method in presence of beta-lactamase inhibitor Sulbactam; assay type: functional
Acinetobacter baumannii [5] = assay: Antimicrobial activity against Acinetobacter baumannii by broth dilution method in presence of beta-lactamase inhibitor Sulbactam; assay type: functional
Acinetobacter baumannii [6] = assay: Antimicrobial activity against Acinetobacter baumannii assessed as susceptible isolate by broth dilution method in presence of beta-lactamase inhibitor Sulbactam; assay type: functional
Acinetobacter baumannii [7] = assay: Antimicrobial activity against Acinetobacter baumannii assessed as resistant isolate by broth dilution method in presence of cilastatin; assay type: functional
Acinetobacter baumannii [8] = assay: Antimicrobial activity against Acinetobacter baumannii assessed as susceptible isolate by broth dilution method in presence of cilastatin; assay type: functional
Acinetobacter baumannii [9] = assay: Antimicrobial activity against Acinetobacter baumannii by broth dilution method in presence of cilastatin; assay type: functional
Homo sapiens [10] = assay: Cmax in patient at 225 mg, iv every 8 hrs for 2 days; assay type: ADME, organism-based; parameters: dose 225 mg, route intravenous; conditions: in vivo
Homo sapiens [11] = assay: Cmax in patient at 225 mg, iv every 12 hrs for 2 days; assay type: ADME, organism-based; parameters: dose 225 mg, route intravenous; conditions: in vivo
Acinetobacter baumannii [12] = assay: Antimicrobial activity against Acinetobacter baumannii assessed as mutant prevention concentration; assay type: functional, organism-based
Acinetobacter baumannii [13] = assay: Ratio of mutant prevention concentration for Acinetobacter baumannii to MIC for Acinetobacter baumannii; assay type: functional, organism-based
Acinetobacter baumannii [14] = assay: Antimicrobial activity against Acinetobacter baumannii assessed as mutant prevention concentration require for 90% of isolates; assay type: functional, organism-based

Row | Molecule | Activity (Acinetobacter baumannii [1]) [%] | Activity (Acinetobacter baumannii [2]) [%] | MIC50 (Acinetobacter baumannii [3]) [mg/L] | MIC90 (Acinetobacter baumannii [3]) [mg/L] | also measured
1 | CO/N=C(\C(=O)N[C@@H]1C(=O)N2C(C(=O)[O-])=C(C[N+]3(C)CCCC3)CS[C@H]12)c1csc(N)n1 | 81.4 | 15.7 |  |  | 
2 | NCC[C@H](O)C(=O)N[C@@H]1C[C@H](N)[C@@H](O[C@H]2O[C@H](CN)[C@@H](O)[C@H](O)[C@H]2O)[C@H](O)[C@H]1O[C@H]1O[C@H](CO)[C@@H](O)[C@H](N)[C@H]1O [AMIKACIN] | 71.4 | 28.6 | > 128 | > 128 | 
3 | CC1(C)S[C@@H]2[C@H](NC(=O)[C@H](N)c3ccccc3)C(=O)N2[C@H]1C(=O)O [AMPICILLIN] |  |  |  |  | Activity (Acinetobacter baumannii [4]): 81.4%; MIC50 (Acinetobacter baumannii [5]): 128 mg/L; MIC90 (Acinetobacter baumannii [5]): > 128 mg/L
4 | CCN1CCN(C(=O)N[C@@H](C(=O)N[C@@H]2C(=O)N3C(C(=O)O)=C(CSc4nnnn4C)CS[C@H]23)c2ccc(O)cc2)C(=O)C1=O [CEFOPERAZONE] |  |  |  |  | Activity (Acinetobacter baumannii [4]): 81.4%; Activity (Acinetobacter baumannii [6]): 17.2%; MIC50 (Acinetobacter baumannii [5]): > 128 mg/L; MIC90 (Acinetobacter baumannii [5]): > 128 mg/L
5 | CC(C)(O/N=C(\C(=O)N[C@@H]1C(=O)N2C(C(=O)[O-])=C(C[n+]3ccccc3)CS[C@H]12)c1csc(N)n1)C(=O)O [CEFTAZIDIME] | 77.1 | 17.2 | > 128 | > 128 | 
6 | O=C(O)c1cn(C2CC2)c2cc(N3CCNCC3)c(F)cc2c1=O [CIPROFLOXACIN] | 82.9 | 15.7 |  |  | 
7 | C[C@@H](O)[C@H]1C(=O)N2C(C(=O)O)=C(SCCNC=N)C[C@H]12 [IMIPENEM ANHYDROUS] |  |  |  |  | Activity (Acinetobacter baumannii [7]): 75.7%; Activity (Acinetobacter baumannii [8]): 21.4%; MIC50 (Acinetobacter baumannii [9]): 16 mg/L; MIC90 (Acinetobacter baumannii [9]): 128 mg/L
8 | C[C@H]1COc2c(N3CCN(C)CC3)c(F)cc3c(=O)c(C(=O)O)cn1c23.C[C@H]1COc2c(N3CCN(C)CC3)c(F)cc3c(=O)c(C(=O)O)cn1c23.O [LEVOFLOXACIN] | 32.8 | 38.6 | 4 | 16 | 
9 | C[C@@H](O)[C@H]1C(=O)N2C(C(=O)O)=C(S[C@@H]3CN[C@H](C(=O)N(C)C)C3)[C@H](C)[C@H]12 [MEROPENEM] | 77.1 | 22.9 | 32 (≈ 83.4 µM) | 64 (≈ 167 µM) | 
10 | CCN[C@@H]1C[C@H](N)[C@@H](O[C@H]2OC(CN)=CC[C@H]2N)[C@H](O)[C@H]1O[C@H]1OC[C@](C)(O)[C@H](NC)[C@H]1O [NETILMICIN] | 75.7 | 20 | > 128 | > 128 | 
11 | CCN1CCN(C(=O)N[C@@H](C(=O)N[C@@H]2C(=O)N3[C@@H]2SC(C)(C)[C@@H]3C(=O)O)c2ccccc2)C(=O)C1=O [PIPERACILLIN] | 82.9 | 10 | 128 (≈ 247 µM) | > 128 | Activity (Acinetobacter baumannii [4]): 71.4%; Activity (Acinetobacter baumannii [6]): 17.2%; MIC50 (Acinetobacter baumannii [5]): > 128 mg/L; MIC90 (Acinetobacter baumannii [5]): > 128 mg/L
12 | COLISTIN [listing 1 of 2 here] |  |  |  |  | Cmax (Homo sapiens [10]): 2.93 µg/mL; Cmax (Homo sapiens [11]): 2.93 µg/mL
13 | COLISTIN [listing 2 of 2 here] | 0 | 100 | 1 | 1 | MPC (Acinetobacter baumannii [12]): > 128 µg/mL; Ratio (Acinetobacter baumannii [13]): 128; MPC (Acinetobacter baumannii [14]): > 128 µg/mL
